# Reference: ChEMBL document CHEMBL3301555, “MMV Malaria Box screening in pLDH viability assay against Plasmodium falciparum gametocytes”
# System: Plasmodium falciparum
# Assay: MMV: Measure of pLDH activity as indication of parasite viability. Gametocytogenesis of 3D7 Plasmodium falciparum strain was induced in vitro and asexual parasites were depleted with N-acetylglucosamine. Gametocytes were treated with dihydroartemisinin, epoxomicin, methylene blue, primaquine, puromycin or chloroquine in 96-well plates and the pLDH activity was evaluated using a modified Makler protocol. Mosquito infectivity was measured by the standard membrane feeding assay.
# Type: functional
# Set-up: concentration or dose not given beside the values
row,Compound,Growth Inhibition
1,COc1ccc(/C=C2/SC(=Nc3ccccc3)NC2=O)cc1,42.24%
2,c1ccc(/C2=N/c3ccccc3/N=C(/c3ccccc3)c3ccccc32)cc1,14.1312%
3,CCOC(=O)c1c(C)n(-c2ccccc2)c2ccc(OC(=O)c3cc(OC)c(OC)c(OC)c3)cc12,-1.486%
4,N#Cc1nc(Cc2cccc3ccccc23)oc1N1CCN(C(c2ccccc2)c2ccccc2)CC1,-13.1388%
5,COc1ccc(C2c3ccc4ccccc4c3Oc3ncn(CCCn4ccnc4)c(=N)c32)cc1OC (stereo not drawn),22.0606%
6,CN(N=O)C1=C(NC2CCCCC2)C(=O)c2ccccc2C1=O,32.2%
7,CCOC(=O)C1=C(C)N=c2sc(=Cc3ccccc3O)c(=O)n2C1c1ccc(OC)c2ccccc12 (stereo not drawn),6.5248%
8,FC(F)(F)c1cccc(Nc2nc3ccccc3nc2Nc2cccc(C(F)(F)F)c2)c1,23.1188%
9,Cc1ccc(C(=O)c2oc3ccc4c(C)cc(=O)oc4c3c2C)cc1,1.1304%
10,COc1ccc(CN2CCCC(C(=O)c3ccc(C(F)(F)F)cc3)C2)c(O)c1 (stereo not drawn),43.708%
11,CCCCCCc1cc2cc(-c3csc(C=Cc4ccccc4)n3)c(=O)oc2cc1O,20.6338%
12,O=C(NC1CCCCC1)C(c1cccs1)N(CCc1ccccc1)C(=O)c1ccco1 (stereo not drawn),7.269%
13,CC(Oc1ccc(NC(=O)c2cccs2)cc1)C(=O)c1ccc(Cl)cc1 (stereo not drawn),16.818%
14,COc1ccc(CNC(=O)c2cc3c(=O)n4ccccc4nc3n(CCc3ccccc3)c2=N)cc1,29.2402%
15,Brc1ccc(Nc2nc3ccccc3nc2Nc2ccc(Br)cc2)cc1,6.7896%
16,Cc1ccnc(NC(c2cccc(OCc3ccccc3)c2)c2ccc3cccnc3c2O)c1 (stereo not drawn),-1.2034%
17,Nc1ccc(-c2nc3cc(Cc4ccc5[nH]c(-c6ccc(N)cc6)nc5c4)ccc3[nH]2)cc1,9.5548%
18,COc1ccc(-c2cn3c(C(=O)Nc4ccccc4Cl)c(-c4ccccc4)c4c3n2CCCC4)cc1,1.628%
19,CCCCOC(=O)c1ccc(Nc2cc(C)nc3ccc(OC)cc23)cc1,15.2218%
20,Cl.Cn1c(=O)n(C)c2cc(CNCCNc3ccnc4cc(Cl)ccc34)ccc21,35.6028%
21,Cc1cc(Nc2ccc(OCc3ccccc3)cc2)nc2cc(O)ccc12,36.4644%
22,CCN(CC)CCNc1ccnc2cc3ccccc3cc12.O=P(O)(O)O,12.0652%
23,CCOc1ccc2nc(C)cc(Nc3ccc(N(C)C)cc3)c2c1.Cl,13.9954%

row,Compound,Growth Inhibition
1,N=c1c2ccccc2nnn1-c1cccc(C(F)(F)F)c1,20.848%
2,COc1cc(-c2nc(-c3ccc(Sc4ccccc4)cc3)c(-c3ccccc3)[nH]2)cc(OC)c1O,10.5558%
3,O=c1cc(NC2CCN(CCCc3ccccc3)CC2)c2cc(Cl)ccc2o1,18.578%
4,COc1ccc(C=C2SC(Nc3ccc(F)cc3)=NC2=O)c(OC)c1,32.1464%
5,OC(Cn1nnc2ccccc21)Cn1c2ccc(Br)cc2c2cc(Br)ccc21 (stereo not drawn),11.39%
6,CCOc1ccc(-n2cc(-c3ccccc3)c3c(SCc4cc(C)ccc4C)ncnc32)cc1,2.789%
7,Cc1ccc(C)c(Cn2c(N3CCC(C(=O)NCc4cccs4)CC3)nc3ccccc32)c1,5.2598%
8,Cc1ccccc1OCCSc1nc2ccc(NC(=O)c3cccs3)cc2s1,6.631%
9,CC1CCN(Cc2c(O)ccc3cc(-c4nc5ccccc5s4)c(=O)oc23)CC1,9.8172%
10,COc1ccccc1C(=O)ON=C(N)Cc1cccc2ccccc12,8.274%
11,CCOc1cc2c(cc1OCC)C(c1cc(Cl)ccc1O)NCC2 (stereo not drawn),24.0914%
12,COc1ccc(C2C(C(=O)Nc3cccc(OC)c3)c3ccccc3C(=O)N2C2CCCCC2)cc1 (stereo not drawn),-2.347%
13,c1ccc2c(NCCc3c[nH]c4ccccc34)c3ccccc3nc2c1,22.8248%
14,O=C(Nc1ccc(C23CC4CC(CC(c5ccccc5)(C4)C2)C3)cc1)c1cccs1,4.2535%
15,CCN(CC)CCCNc1ccnc2cc3ccccc3cc12,22.6902%
16,CCOC(=O)c1cnc2c(C)cccc2c1Nc1ccc(C(C)=O)cc1,14.9964%
17,O=C(Nc1ccc(-c2nc3cc4ccccc4cc3[nH]2)cc1)c1cccc(Br)c1,12.54%
18,Cc1ccc(-c2nc3ccccc3o2)cc1NCc1cc(Cc2ccccc2)ccc1O,21.1902%
19,Cc1ccc(C2CC(C(F)(F)F)n3nc(C(=O)N4CCN(C(c5ccccc5)c5ccccc5)CC4)cc3N2)cc1 (stereo not drawn),4.7565%
20,Cc1ccc2nc(C)cc(Nc3cccc(C(F)(F)F)c3)c2c1.Cl,-5.193%
21,COc1ccc(C(O)(CCC(C)C)C(CN2CCOCC2)c2ccc(Cl)cc2)cc1.Cl (stereo not drawn),9.238%
22,COc1ccc(-c2cc(=O)oc3c4c(ccc23)OCN(Cc2ccc(F)cc2)C4)cc1,25.9468%
23,O=C(Cc1ccccc1)NC(c1ccc(Cl)cc1)c1c(O)ccc2ccccc12 (stereo not drawn),13.3694%

row,Compound,Growth Inhibition
1,CCOc1ccc2c(c1)CN(Cc1ccc(Cl)cc1)CO2,25.403%
2,CCCCC(O)(c1ccc(Cl)cc1)C(CN1CCOCC1)c1ccc(Cl)cc1.Cl (stereo not drawn),3.244%
3,c1ccc(CNc2nc(Nc3ccccc3)nc3ccccc23)cc1,12.3006%
4,COc1ccc(C(=O)NC(c2ccccc2Cl)c2cc(Cl)c3cccnc3c2O)cc1 (stereo not drawn),27.7302%
5,Cc1cccc(N2C(=O)C3C(C2=O)C2(c4ccccc4)C(=O)C3(c3ccccc3)C(c3ccc4c(c3)OCO4)=C2c2ccc3c(c2)OCO3)c1 (stereo not drawn),6.488%
6,Cc1cc(=O)oc2c1ccc1oc(C(=O)c3ccccc3)c(C)c12,19.4%
7,COc1ccc2c(c1OC)C(=O)N1c3ccccc3N=C(c3ccc(C)cc3)CC21 (stereo not drawn),14.488%
8,CCCCCCc1cc(O)c2c3c(c(=O)oc2c1)CCC(C)C3 (stereo not drawn),26.585%
9,COc1ccc(CCNC(=O)c2cc(S(=O)(=O)N3CC(C)CC(C)C3)ccc2Sc2ccc(F)cc2)cc1OC (stereo not drawn),10.1532%
10,Cc1ccc(F)cc1NC(=O)c1cc(Cl)ccc1Nc1ccccc1,10.2234%
11,CCOc1ccc(Nc2c3ccccc3nc3ccccc23)cc1.Cl,2.291%
12,CCOc1ccc2nc(C)cc(Nc3ccc(Br)cc3)c2c1,-8.7645%
13,COc1cc2c3cc1Oc1c(OC)c(OC)cc4c1C(Cc1ccc(O)c(c1)Oc1ccc(cc1)CC3N(C)CC2)N(C)CC4.Cl (stereo not drawn),37.697%
14,CCCCCCc1cc2cc(-c3nc4ccccc4[nH]3)c(=Nc3ccccc3C)oc2cc1O,18.3094%
15,CCCCCCC(O)(c1ccc(F)cc1)C(CN1CCOCC1)c1ccccc1.Cl (stereo not drawn),-0.4664%
16,COc1cc(OC)cc(N2C(=O)N(Cc3ccc(C(C)(C)C)cc3)c3ccccc3S2(=O)=O)c1,5.995%
17,CCOc1c(Br)cc(C2C(C(=O)OC)=CN(C)C=C2C(=O)OC)cc1OC,11.9416%
18,COc1ccc2sc(N(Cc3cccnc3)C(=O)c3ccc(C#N)cc3)nc2c1,-6.4226%
19,COc1ccccc1N1C(=N)SC(=Cc2ccc(OCc3ccccc3F)cc2)C1=O,14.0558%
20,CCOC(=O)C1=CN(C)C=C(C(=O)OCC)C1c1cc(Br)c(OCC)c(OC)c1,20.4206%
21,CCOC(=O)c1c[nH]c2c(CC)cccc2c1=O,3.164%
22,CCCCc1c(CCC)c(=N)c2ccccc2n1C.I,1.3375%
